Source: patent EP1537869A2, “Radiosensibilizer and preparation thereof” (Christian-Albrechts-Universität zu Kiel, priority 2003, dated 2005)

Legend:
hypoxischen CHO-ZeIlen = assay: Radiosensitisation of hypoxic CHO cells (enhancement ratio ER); type: cell-based; conditions: radiosensitising effect
Description: Nickel-α-Diimin-Komplexe der Strukturtypen (α-Diimin)NiCl2 und [(α-Diimin)2Ni](ClO4)2 mit dem α-Diimin Antipy-PCD zeigen gegenüber isosteren Palladium- und Platin-Komplexen erhöhte radiosensibilisierende Wirkungen in hypoxischen CHO-ZeIlen; ER = 1,41 resp. 1,37. Für den unkoordinierten Antipy-PCD-Liganden, mit dem bekannten bioaktiven Molekülteil Phenazon, konnte nur ein sehr geringer strahlensensibilisierender Effekt (ER = 1,13) nachgewiesen werden. Die neutralen α-Diimin-Metall-Halogenid-Komplexe (a) der Nickel-Triade haben gegenüber analogen ionischen Perchlorat-Komplexen (b) eine deutlich höhere radiosensibilisierende Wirkung. Folgende Reihen entsprechender Komplexe - bezogen auf das Zentralmetall - mit abnehmenden o.g. sensibilisierenden Eigenschaften wurden ermittelt: für • (a) Ni > Pd > Pt • (b) Ni > Pt > Pd
Von den untersuchten neuen Platin-α-Diimin-Komplexen ist die fünffach koordinierte (Antipy-PCD)PtCl2(NH3)-Verbindung wegen ihres relativ hohen strahlensensibilisierenden Effektes (ER = 1,36) - verglichen mit ER-Literaturdaten für Platinkomplexe - bedeutsam. Eine entsprechende Sensibilisierung aerobischer CHO-ZeIlen durch die hier untersuchten Substanzen wurde in keinem Fall beobachtet.

[1] = system: Mammakarzinomzell-Linie MDA-MB 231; assay: In vitro toxicity (T/C in %) on breast carcinoma cell line; type: cell-based, menschlichen; conditions: MDA-MB 231, qualitative or ranking
Description: Die Toxizität (T/C in %) weiterer erstmals dargestellter α-Diimin-Komplexe der Nickel-Triade unterschiedlicher Strukturtypen wurde in vitro an der menschlichen Mammakarzinomzell-Linie MDA-MB 231 getestet.

in vitro = conditions: hamster, cho cells

Compound | ER (hypoxischen CHO-ZeIlen) | Toxizität (T/C in %) [1] | viability at 3 h, 300 µM (in vitro)
Dichloro-2-pyridinal-(2,3-dihydro-1,5-dimethyl-3-oxo-2-phenyl-1H-pyrazol-4-ylimin)ammin-platin(II) [(Antipy-PCD)PtCl2(NH3)] | 1,36 | – | –
COc1cc([N+](=O)[O-])ccc1N=Cc1ccccn1 [2-MeO-4-NO2-Ph-PCD] | – | merkliche Toxizität | –
Cc1c(N=Cc2ccccn2)c(=O)n(-c2ccccc2)n1C [Antipy-PCD, 2-Pyridinal-2,3-dihydro-1,5-dimethyl-3-oxo-2-phenyl-1H-pyrazol-4-ylimin] | 1,13 | – | 36%
Bis(2-pyridinal-2,3-dihydro-1,5-dimethyl-3-oxo-2-phenyl-1H- pyrazol-4-ylimin)-nickel(II)perchlorat [[(α-Diimin)2Ni](ClO4)2] | 1,37 | – | –
